In patent publication US6613791B1, “N-substituted azaheterocyclic carboxylic acids and their use” (Novo Nordisk A/S, priority 1994, dated 2003):

Tests used:
[1] = test system: formalin induced pain response; assay: Formalin induced pain or paw oedema in mice; assay type: in vivo; settings: 0.1 mg/kg; NMRI female mice, 20 μl 1% formalin into left hind paw
Procedure: Values for in vivo inhibition of formalin induced pain or oedema for the compounds of the present invention were assessed in mice essentially by the method of Wheeler-Aceto and Cowan (Agents Action 1991, 34, 265-269).
About 20 g NMRI female mice were injected 20 μl 1% formalin into the left hind paw. The animals were then placed on a heated (31° C.) table, and the pain response was scored. After 1 h they were killed and bled. Left and right hind paws were removed and the weight difference between the paws was used as indication of the oedema response of the formalin injected paw.

Compound	melting point [°C]	% Pain inhibition (inhibition of formalin induced pain response) [1] [%]
Cl.O=C(O)C1CCN(CCCN2c3ccccc3CCc3ccccc32)CC1	195 to 197	–
Cl.O=C(O)CC1CCN(CCCN2c3ccccc3CCc3ccccc32)CC1	185 to 188	–
Cl.O=C(O)C1CCN(CCC=C2c3ccccc3CCc3ccccc32)CC1	224 to 226	–
Cl.NC(=O)[C@@H]1CCCN(CCC=C2c3ccccc3CCc3ccccc32)C1	> 250	–
Cl.O=C(O)C1CCN(CCCN2c3ccccc3Oc3ccccc32)CC1	196 to 198	–
Cl.O=C(O)CC1CCCN(CCCN2c3ccccc3CCc3ccccc32)C1 (stereo not shown)	233 to 235	–
Cl.O=C(O)C1CCN(CCCN2c3cc(Cl)ccc3CCc3ccc(Cl)cc32)CC1	237 to 239	–
Cc1ccc2c(c1)C(=CCCN1CCC(C(=O)O)CC1)c1ccccc1CC2.Cl	> 250	–
Cl.OCC1CCCN(CCCN2c3ccccc3CCc3ccccc32)C1 (stereo not shown)	145 to 147	–
CC1C(C(=O)O)CCCN1CCCN1c2ccccc2CCc2ccccc21.Cl (stereo not shown) (hydrate or solvate)	169 to 170	–
Cl.O=C(O)C1CCN(CCCN2c3ccc(Br)cc3CCc3cc(Br)ccc32)CC1 (hydrate or solvate)	165 to 166	–
O=C([O-])C1CN(CCCN2c3ccccc3CCc3ccccc32)CCN1.[K+] (stereo not shown) (hydrate or solvate)	151 to 155	–
Cl.O=C(O)C1CCCCN1CCCN1c2ccccc2CCc2ccccc21 (stereo not shown) (hydrate or solvate) [Example 5, 1-(3-(10,11-Dihydro-5H-dibenz[b,f]azepin-5-yl)-1-propyl)-2-piperidinecarboxylic Acid Hydrochloride]	122 to 126	–
Cl.O=C(O)C1CN(CCCN2c3ccccc3CCc3ccccc32)CCO1 (stereo not shown) (hydrate or solvate) [Example 8, 4-(3-(10,11-Dihydro-5H-dibenz[b,f]azepin-5-yl)-1-propyl)-2-morpholinecarboxylic Acid Hydrochloride]	196 to 199	–
Cl.O=C(O)C1Cc2ccccc2CN1CCCN1c2ccccc2CCc2ccccc21 (stereo not shown) (hydrate or solvate) [Example 9, 2-(3-(10,11-Dihydro-5H-dibenz[b,f]azepin-5-yl)-1-propyl)-1,2,3,4-tetrahydro-3-isoquinolinecarboxylic Acid Hydrochloride]	205 to 208	–
Cc1ccc2c(c1)N(CCCN1CCC(C(=O)O)CC1)c1cc(C)ccc1CC2 (hydrate or solvate) [Example 24, 1-(3-(3,7-Dimethyl-10,11-dihydro-5H-dibenz[b,f]azepin-5-yl)-1-propyl)-4-piperidinecarboxylic Acid]	207 to 209	–
CN(C)c1ccc2c(c1)N(CCCN1CCC(C(=O)O)CC1)c1ccccc1CC2 (hydrate or solvate) [Example 25, 1-(3-(3-Dimethylamino-10,11-dihydro-5H-dibenz[b,f]azepin-5-yl)-1-propyl)-4-piperidinecarboxylic Acid]	198 to 202	–
Cl.OC1(c2ccc(Cl)cc2)CCN(CCCN2c3ccccc3CCc3ccccc32)CC1 [Example 2, 4-(4-Chlorophenyl)-1-(3-(10,11-dihydro-5H-dibenz[b,f]azepin-5-yl)-1-propyl)piperidin-4-ol Hydrochloride]	–	13
Cl.NC(=O)C1CCCN(CCCN2c3ccccc3CCc3ccccc32)C1 (stereo not shown) [Example 4, 1-(3-(10,11-Dihydro-5H-dibenz[b,f]azepin-5-yl)-1-propyl)-3-piperidinecarboxamide Hydrochloride]	–	47
Cl.O=C(O)C1CCCCN1CCCN1c2ccccc2CCc2ccccc21 (stereo not shown) [Example 5, 1-(3-(10,11-Dihydro-5H-dibenz[b,f]azepin-5-yl)-1-propyl)-2-piperidinecarboxylic Acid Hydrochloride]	–	36
Cl.O=C(O)C1CN(CCCN2c3ccccc3CCc3ccccc32)CCO1 (stereo not shown) [Example 8, 4-(3-(10,11-Dihydro-5H-dibenz[b,f]azepin-5-yl)-1-propyl)-2-morpholinecarboxylic Acid Hydrochloride]	–	34
Cl.O=C(O)C1Cc2ccccc2CN1CCCN1c2ccccc2CCc2ccccc21 (stereo not shown) [Example 9, 2-(3-(10,11-Dihydro-5H-dibenz[b,f]azepin-5-yl)-1-propyl)-1,2,3,4-tetrahydro-3-isoquinolinecarboxylic Acid Hydrochloride]	–	29
